Measured values from patent US20150265514A1, “METHODS OF INHIBITING HAIR GROWTH” (NOGRA PHARMA LIMITED, priority 2012, published 2015).
“Also recorded” adds a separate entry of the source.

Key:
[1] = system: anagen VI hair follicles (HFs); test: Hair shaft elongation in hair follicle organ culture; format: cell-based, human
Procedure: (§1) Normally pigmented anagen VI hair follicles (HFs) (grey/white HFs were excluded from the study) were microdissected from normal human scalp skin and organ cultured following the Philpott model. Compound A or vehicle was administered once for each change of medium (i.e. every 48 h/72 h).
(§2) Details regarding tissue specimen origin used in the present example are as described in Example 2 above.
Hair shaft length measurements of HFs were performed on individual HFs using a Zeiss inverted binocular microscope with an eyepiece measuring graticule.
(§3) To evaluate apoptotic cells in colocalization with a proliferation marker Ki-67, a Ki-67/terminal dUTP nick-end labeling (TUNEL) double-staining method was used. Cryostat sections were fixed in paraformaldehyde and ethanol-acetic acid (2:1) and labeled with a digoxigenin-deoxy-UTP (ApopTag fluorescein in situ apoptosis detection kit; Intergen, Purchase, N.Y.) in the presence of terminal deoxynucleotidyl transferase, followed by incubation with a mouse anti-Ki-67 antiserum (1:20 in PBS overnight at 4 C; Dako, Glostrup, Denmark). TUNEL-positive cells were visualized by an antidigoxigenin fluorescein isothiocyanate-conjugated antibody (ApopTag kit), whereas Ki-67 was detected by a rhodamine-labeled goat antimouse antibody (Jackson ImmunoResearch, West Grove, Pa.). Negative controls were performed by omitting terminal deoxynucleotidyltransferase and the Ki-67 antibody. Counterstaining was performed with 4′,6-diamidino-2-phenylindole (DAPI) (Roche Molecular Biochemicals GmbH, Mannheim, Germany). Quantitative immunohistomorphometry was performed; Ki-67-, TUNEL-, or DAPI-positive cells were counted in a previously defined reference region of the HF matrix, and the percentage of Ki-67/TUNEL-positive cells were determined. Statistical analysis was performed using a two-tailed Student's t-test for unpaired samples. […] In order to avoid data distortion by individual experiments, rigid exclusion criteria were defined that allowed to exclude one individual experiment (out of 5-6) per read-out parameter. […]

[2] = system: keratin K15; test: K15 quantitative immunohistochemistry in organ-cultured human scalp hair follicles; format: cell-based; conditions: human scalp HF organ culture; for Keratin-15 immunoreactivity: all concentrations tested, pooled data
Procedure: (§4) Normal human scalp skin was obtained from 6 women undergoing routine face-lift surgery after informed consent. All experiments were performed according to Helsinki guidelines, with appropriate ethics committee approval.
as §1
To investigate keratin K15 expression, the tyramide signal amplification method was used as previously described (Kloepper et al., 2008). Briefly, acetone fixed cryosections were washed three times for 5 min using TNT (Tris-HCL NaCl Tween) buffer (0.1 mol/1 Tris-HCl, pH 7.5; containing 0.15 mol/1 NaCl and 0.05% Tween 20). Next, horseradish peroxidase was blocked by washing with 3% H2O2 in phosphate-buffered saline (PBS) for 15 min. Preincubation was performed with the incubation of avidin and biotin for 15 min and 5% goat normal serum in TNT for 30 min with washing steps in between. Mouse anti-human K15 (clone LHK15, Chemicon, Billerica, USA) was diluted in TNT and incubated overnight at 4° C. followed by a biotinylated secondary antibody goat anti-mouse (1:200 in TNT) for 45 min at RT. Next, streptavidin horseradish peroxidase (TSA kit; Perkin-Elmer, Boston, Mass., USA) was administered (1:100 in TNT) for 30 min at RT. […] The intensity of the immunostaining was quantified by ImageJ software (National Institutes of Health). The staining intensity of defined reference regions in the HF was measured and compared between control and N Compound A-treated groups. The percentage of K15-positive cells in comparison to the total amount of cells in the ORS was calculated.
Statistical analysis was performed using a two-tailed Student's t-test for unpaired samples. […] In order to avoid data distortion by individual experiments, rigid exclusion criteria were defined that allowed to exclude one individual experiment (out of 5-6) per read-out parameter. […]

[3] = system: K19; test: K19 quantitative immunohistochemistry in organ-cultured human scalp hair follicles; format: cell-based; conditions: for Keratin 19 immunoreactivity: all concentrations tested
Procedure: as §4, §1
A previously described protocol was used to investigate K19 expression (Kloepper et al., 2008). Briefly, acetone-fixed cryosections were pre-treated with goat serum (10% in Tris-buffered saline, Dako). The sections were incubated first with primary antibodies against K19 (mouse anti-human: K19-1:10; overnight, at 4° C.; PROGEN, Heidelberg, Germany;) and then with FITC-labeled goat anti-mouse (1:200 in TBS, for 45 min, RT, Jackson ImmunoResearch) immunoglobulins as secondary antibodies. Counterstaining was performed with DAPI (Boehringer Mannheim, Mannheim, Germany). The intensity of this immunostaining was quantified by ImageJ software (National Institutes of Health). The staining intensity of defined reference regions in the HF was measured and compared between control and Compound A-treated groups. The percentage of K19-positive cells in comparison to the total amount of cells in the ORS was calculated.
Statistical analysis was performed using a two-tailed Student's t-test for unpaired samples. For meta-analysis purposes, a total of six assays (each with HFs from a different female individual) were run. […] In order to avoid data distortion by individual experiments, rigid exclusion criteria were defined that allowed to exclude one individual experiment (out of 5-6) per read-out parameter. Since these exclusion criteria differed for each study parameter, different experiments (i.e. one out of 6, and one out of 5 in the case of keratin 19 analysis) were excluded for each assay parameter. The exclusion criteria were: (i) most extreme deviation from the results trend shown by the majority among the 6 experiments, in order to avoid data distortion by outliers (which can be affected e.g. by patient's medication, medical history etc.); and (ii) failure to meet minimal quality criteria.

[4] = system: anagen VI hair follicles (HFs); test: LDH activity in supernatant of hair follicle organ culture (cytotoxicity); format: cell-based, human; conditions: for LDH activity in the supernatant: 0.1 mM dose, day 6, pooled data
Procedure: as §1, §2
LDH activity in the supernatant can serve as an indicator of cytotoxicity and was measured following the manufacturer's instructions (Cytotoxicity Detection Kit; Roche, Mannheim, Germany). The absorbance of the samples was measured at 490 nm using an ELISA plate-reader.
as §3, with “determined.” for “determined. Statistical analysis was performed using a two-tailed Student's t-test for unpaired samples.”

[5] = system: anagen VI hair follicles (HFs); test: HF cycle staging (anagen/catagen) in hair follicle organ culture; format: cell-based, human
Procedure: as §1, §2
HF cycle staging was carried out according to previously defined morphological criteria, and the percentage of HFs in anagen and early, mid, or late catagen was determined.
as §3

[6] = listed as N-acetyl-(R)-(−)-3-(4-aminophenyl)-2-methoxypropionic acid

In the case of `CO[C@H](Cc1ccc(NC(C)=O)cc1)C(=O)O` [Compound A, N-acetyl-(R)-(−)-3-(4-aminophenyl)-2-methoxypropionic acid], the hair shaft elongation ([1]; high dose (1 mM), day 6, pooled data) is reported as “slightly, but significantly, inhibited; also recorded: inhibits hair shaft elongation”, the hair shaft elongation ([1]; high dose (1 mM), day 6, pooled data, listed as N-acetyl-(R)-(−)-3-(4-aminophenyl)-2-methoxypropionic acid) is reported as “inhibition” and the hair shaft elongation ([1]; lower concentrations (below 1 mM)) is reported as “did not have an effect”. The Keratin-15 immunoreactivity [2] was “strongly stimulated”, the Keratin-15 immunoreactivity [2, 6] was “stimulation” and the “number of K15-positive cells” value [2] was “did not increase”. The “Keratin 19 immunoreactivity” value ([3]; human scalp HF organ culture, pooled data) was “strongly stimulated”, the “Keratin 19 immunoreactivity” value ([3]; human scalp HF organ culture, pooled data, listed as N-acetyl-(R)-(−)-3-(4-aminophenyl)-2-methoxypropionic acid) was “stimulation” and the “number of K19-positive cells relative to control” value ([3]; human scalp HF organ culture) was “stimulating effect”. The “numbers of K19 positive cells” value ([3]; low and high concentrations, pooled data) was “increased numbers”, the “LDH activity in the supernatant” value [4] was “slight increase” and the “LDH activity in the supernatant” value [4, 6] was “increase”. The “HF toxicity under assay conditions” value ([4]; concluded from LDH activity) was “very low, if any”, the “hair cycle effect (catagen)” value ([5]; all concentrations, pooled data) was “induced catagen; also recorded: catagen-inducing effect” and the “hair cycle effect (catagen)” value ([5]; analysis of the individual 5 experiments, percentage of each hair cycle stage, n=5) was “strong trend towards induction of catagen”. The “hair cycle effect (catagen)” value ([5]; analysis of the individual 5 experiments, percentage of each hair cycle stage, n=5, listed as N-acetyl-(R)-(−)-3-(4-aminophenyl)-2-methoxypropionic acid) was “trend toward catagen”.
